# According to US4357344A, “Polybutylbenzylphenols and benzyl-3,4-methylenedioxybenzenes in insect population control” (The United States of America as represented by the …, priority 1979, dated 1982):
# Tested on: flies (family Muscidae)
# Assay: Anti-procreant comparison tests (sexual sterility or oviposition inhibition)
# Format: in vivo
# Conditions: for inducing sexual sterility or inhibiting oviposition: comparison tests, Examples 6-9; for activity in the method of the invention (ineffective compounds): general statement of the description
# Method: The compound to be tested was administered in a standard fly food containing 6 parts of sugar, 6 parts of powdered non-fat dry milk, and 1 part of powdered egg yolk. Treated food was prepared by mixing an appropriate amount of a solution or suspension of CBCP in acetone with a batch of the food. The acetone was evaporated (4-6 hours) and the dry material was repulverized.
# Oviposition inhibition tests: Samples of treated food with a container of water were placed in cages containing 100 newly-emerged adult flies (family Muscidae). After the flies had been exposed to the treated diet for 6-7 days, 1/2 inch of moist standard fly larva-rearing medium (CSMA) in souffle cups was placed in the cages for oviposition. After 4-6 hours, the cup was removed and examined for eggs. If no eggs were laid, the medium was offered again at intervals of 1 or 2 days until it had been offered three times or the flies had oviposited.
# Chemosterilancy tests: If eggs were laid in the above tests, the cups were filled with water and stirred to break up the egg masses. A random sample of 100 eggs from each cup was collected and placed on a small piece of black cloth which was then laid on top of moist larva-rearing medium in a rearing container. Observations were made to determine percentage of egg hatch and pupal development.
# These flies were maintained on untreated fly food. After 5 days, cups containing the larval-rearing medium was provided as previously described and a 100-egg sample was collected and place on moist larve-rearing medium. About a week after oviposition, examination was made to determine the percentage of hatched eggs and of pupae developed.
# For purpose of comparison the above-described tests were applied to 2-benzyl-4-t-butylphenol and 2-(α-methylbenzyl)-4-t-butylphenol.
# For purposes of comparison the above-described tests were applied to 2,6-di-t-butyl-4-(4-methoxybenzyl) phenol and 2,6-di-t-butyl-4-(α-methyl-4-methoxybenzyl)phenol, both compounds being ineffective in inducing sexual sterility or in inhibiting oviposition.
# For purposes of comparison the following compounds were tested and found to be ineffective in inducing sexual sterility or in inhibiting oviposition: 2-(4-methoxybenzyl)-3,4-methylenedioxyphenol, (α-methylbenzyl)-3,4-methylenedioxy-6-methoxybenzene, (α,α-dimethylbenzyl)-3,4-methylenedioxy-6-methoxybenzene, (α,α-dimethylbenzyl)-3,4-methylenedioxy-6-ethoxybenzene, (α,α-dimethylbenzyl)-3,4-methylenedioxy-6-n-propoxybenzene, (α,α-dimethylbenzyl)-3,4-methylenedioxy-6-n-butoxybenzene, (α,α-dimethylbenzyl)-3,4-methylenedioxy-6-n-pentoxybenzene, (α-vinylbenzyl)-3,4-methylenedioxy-6-methoxybenzene, (α-vinylbenzyl)-3,4-methylenedioxy-6-ethoxybenzene, (α-vinylbenzyl)-3,4-methylenedioxy-6-n-propoxybenzene.
Compound,inducing sexual sterility or inhibiting oviposition,activity in the method of the invention (ineffective compounds)
"(α-Vinylbenzyl)-3,4-methylenedioxy-6-n-propoxybenzene [GG]",ineffective,
"(α,α-Dimethylbenzyl)-3,4-methylenedioxy-6-methoxybenzene",ineffective,
"COc1ccc(C(C)c2cc(C(C)(C)C)c(O)c(C(C)(C)C)c2)cc1 (stereo not drawn) [Compound G, 2,6-Di-t-butyl-4-(α-methyl-4-methoxybenzyl)phenol]",ineffective,ineffective
"2-(4-methoxybenzyl)-3,4-methylenedioxyphenol [reference compound]",ineffective,
"COc1ccc(Cc2cc3c(cc2O)OCO3)cc1 [6-(4-methoxybenzyl)-3,4-methylenedioxyphenol, reference compound]",,ineffective
"CCCCOc1cc2c(cc1C(C)(C)c1ccccc1)OCO2 [AA, (α, 60 -Dimethylbenzyl)-3,4-methylenedioxy-6-n-butoxybenzene]",ineffective,
"CC(C)(C)c1ccc(O)c(Cc2ccccc2)c1 [2-benzyl-4-t-butylphenol, reference compound]",ineffective,ineffective
"CC(C)(C)c1cc(C(C)(C)c2ccccc2)cc(C(C)(C)C)c1O [4-(α,α-dimethylbenzyl)-2,6-di-t-butylphenol, reference compound]",,ineffective
